Where two headings read alike, the source gives them in different places.
Legend:
cancer cell lines = assay: Cell viability analysis (WST-1) on cancer cell lines; format: cell-based, human; details: drug 10 μM, 72 hours, WST-1; Table 3
[1] = system: HI650 (Lung Adenocarcinoma); assay: Cell viability analysis, lung cancer HI650; format: cell-based, human; details: Homo sapiens, NCI-H1650, 72 h
[2] = system: A549 (Lung Adenocarcinoma); assay: Cell viability analysis, lung cancer A549; format: cell-based, human; details: Homo sapiens, A549, 72 h
[3] = system: AGS (Gastric Adenocarcinoma); assay: Cell viability analysis, gastric cancer AGS; format: cell-based, human; details: Homo sapiens, 72 h
[4] = system: MKN-45 (Gastric Adenocarcinoma); assay: Cell viability analysis, gastric cancer MKN-45; format: cell-based, human; details: Homo sapiens, MKN-45, 72 h
[5] = system: HepG2 (Hepatocellular Carcinoma); assay: Cell viability analysis, hepatic cancer HepG2; format: cell-based, human; details: Homo sapiens, HepG2, 72 h
[6] = system: Hep3B (hepatocellular carcinoma); assay: Cell viability analysis, hepatic cancer Hep3B; format: cell-based, human; details: Homo sapiens, 72 h; Hep3B; repeated experiment; read-out: The results of antibiotic drug inhibiting cancer cell lines (cell viability analysis), Hep3B
[7] = system: LoVo (Colorectal Adenocarcinoma); assay: Cell viability analysis, colon cancer LoVo; format: cell-based, human; details: Homo sapiens, LoVo, 72 h
[8] = system: A375 (Amelanotic Melanoma); assay: Cell viability analysis, skin cancer A375; format: cell-based, human; details: Homo sapiens, A-375, 72 h
[9] = system: BCC (basal cell carcinoma); assay: Cell viability analysis, skin cancer BCC; format: cell-based, human; details: Homo sapiens, 72 h; BCC; repeated experiment; read-out: The results of antibiotic drug inhibiting cancer cell lines (cell viability analysis), BCC
[10] = system: HeLa (Cervix Adenocarcinoma); assay: Cell viability analysis, cervical cancer HeLa; format: cell-based, human; details: Homo sapiens, HeLa, 72 h, HeLa
[11] = system: C-33A (Cervical carcinoma); assay: Cell viability analysis, cervical cancer C-33A; format: cell-based, human; details: Homo sapiens, 72 h; C-33A; repeated experiment; read-out: The results of antibiotic drug inhibiting cancer cell lines (cell viability analysis), C-33A
[12] = system: TSGH-8301 (Urinary Bladder Carcinoma); assay: Cell viability analysis, bladder cancer TSGH-8301; format: cell-based, human; details: Homo sapiens, 72 h
T24 = assay: Cell viability analysis, bladder cancer T24; format: cell-based, human; details: Homo sapiens, T-24, 72 h; T24; repeated experiment; read-out: The results of antibiotic drug inhibiting cancer cell lines (cell viability analysis), T24
[13] = system: MCF7 (Mammary Gland, Adenocarcinoma); assay: Cell viability analysis, breast cancer MCF7; format: cell-based, human; details: Homo sapiens, MCF7, 72 h
[14] = system: MDA-MB-231 (Mammary Gland, Adenocarcinoma); assay: Cell viability analysis, breast cancer MDA-MB-231; format: cell-based, human; details: Homo sapiens, MDA-MB-231, 72 h; MDA-MB231; repeated experiment; read-out: The results of antibiotic drug inhibiting cancer cell lines (cell viability analysis), MDA-MB231
AsPC-1 = assay: Cell viability analysis, pancreatic cancer AsPC-1; format: cell-based, human; details: Homo sapiens, ASPC1, 72 h; AsPC-1; repeated experiment; read-out: The results of antibiotic drug inhibiting cancer cell lines (cell viability analysis), AsPC-1
NIH: OVCAR-3 = assay: Cell viability analysis, ovarian cancer NIH: OVCAR-3; format: cell-based, human; details: Homo sapiens, 72 h; NIH-OVCAR-3; repeated experiment; read-out: The results of antibiotic drug inhibiting cancer cell lines (cell viability analysis), NIH-OVCAR-3
TOV-21G = assay: Cell viability analysis, ovarian cancer TOV-21G; format: cell-based, human; details: Homo sapiens, TOV21G, 72 h; TOV-21G; repeated experiment; read-out: The results of antibiotic drug inhibiting cancer cell lines (cell viability analysis), TOV-21G
[15] = system: SAS (Tongue squamous cell carcinoma); assay: Cell viability analysis, tongue cancer SAS; format: cell-based, human; details: Homo sapiens, 72 h; SAS; repeated experiment; read-out: The results of antibiotic drug inhibiting cancer cell lines (cell viability analysis), SAS
U-2OS = assay: Cell viability analysis, osteosarcoma U-2OS; format: cell-based, human; details: Homo sapiens, 72 h; U2OS; repeated experiment; read-out: The results of antibiotic drug inhibiting cancer cell lines (cell viability analysis), U2OS
[16] = system: 786-O (Renal adenocarcinoma); assay: Cell viability analysis, renal cancer 786-O; format: cell-based, human; details: Homo sapiens, 786-0, 72 h; 786-O; repeated experiment; read-out: The results of antibiotic drug inhibiting cancer cell lines (cell viability analysis), 786-O
[17] = system: HL-60 (Acute Promyelocytic Leukemia); assay: Cell viability analysis, leukemia HL-60; format: cell-based, human; details: Homo sapiens, HL-60, 72 h, drug 10 μM, 72 hours, WST-1, OD450 nm; read-out: cell viability (survival rate), HL-60
[18] = system: HCT116 (p53+) (Colorectal Carcinoma)

Compound: CCCCCCCCCCCCCCCC[N+](C)(C)CCN(Cc1ccc(OC)cc1)c1ncccn1 [Thonzonium Bromide]
- inhibition effect on different cancer cell lines (cancer cell lines): significant inhibition effect
- viability at 10 µM ([1]; H1650, repeated experiment, read-out: The results of antibiotic drug inhibiting cancer cell lines (cell viability analysis), H1650): 37.6%
- viability at 10 µM ([1]; drug 10 μM, 72 hours, WST-1, OD450 nm, read-out: cell viability (survival rate), H1650): 36.7%
- viability at 10 µM ([2]; A549, repeated experiment, read-out: The results of antibiotic drug inhibiting cancer cell lines (cell viability analysis), A549): 15%
- viability at 10 µM ([2]; drug 10 μM, 72 hours, WST-1, OD450 nm, read-out: cell viability (survival rate), A549): 36.6%
- viability at 10 µM ([3]; AGS, repeated experiment, read-out: The results of antibiotic drug inhibiting cancer cell lines (cell viability analysis), AGS): 14.4%
- viability at 10 µM ([3]; drug 10 μM, 72 hours, WST-1, OD450 nm, read-out: cell viability (survival rate), AGS): 22.5%
- viability at 10 µM ([4]; MKN-45, repeated experiment, read-out: The results of antibiotic drug inhibiting cancer cell lines (cell viability analysis), MKN-45): 31.2%
- viability at 10 µM ([4]; drug 10 μM, 72 hours, WST-1, OD450 nm, read-out: cell viability (survival rate), MKN-45): 47%
- viability at 10 µM ([5]; HepG2, repeated experiment, read-out: The results of antibiotic drug inhibiting cancer cell lines (cell viability analysis), HepG2): 47.7%
- viability at 10 µM ([5]; drug 10 μM, 72 hours, WST-1, OD450 nm, read-out: cell viability (survival rate), HepG2): 45.1%
- viability at 10 µM [6]: 51.3%
- viability at 10 µM ([7]; read-out: The results of antibiotic drug inhibiting cancer cell lines (cell viability analysis), LoVo, repeated experiment): 50.9%
- viability at 10 µM ([7]; read-out: cell viability (survival rate), LoVo, drug 10 μM, 72 hours, WST-1, OD450 nm): 39.4%
- viability at 10 µM ([8]; A375, repeated experiment, read-out: The results of antibiotic drug inhibiting cancer cell lines (cell viability analysis), A375): 12.4%
- viability at 10 µM ([8]; drug 10 μM, 72 hours, WST-1, OD450 nm, read-out: cell viability (survival rate), A375): 24.4%
- viability at 10 µM [9]: 23.4%
- viability at 10 µM ([10]; repeated experiment, read-out: The results of antibiotic drug inhibiting cancer cell lines (cell viability analysis), HeLa): 20.3%
- viability at 10 µM ([10]; drug 10 μM, 72 hours, WST-1, OD450 nm, read-out: cell viability (survival rate), HeLa): 28%
- viability at 10 µM [11]: 32.5%
- viability at 10 µM ([12]; TSGH-8301, repeated experiment, read-out: The results of antibiotic drug inhibiting cancer cell lines (cell viability analysis), TSGH-8301): 16.7%
- viability at 10 µM ([12]; drug 10 μM, 72 hours, WST-1, OD450 nm, read-out: cell viability (survival rate), TSGH): 18.4%
- viability at 10 µM (T24): 18.5%
- viability at 10 µM ([13]; MCF-7, repeated experiment, read-out: The results of antibiotic drug inhibiting cancer cell lines (cell viability analysis), MCF-7): 41%
- viability at 10 µM ([13]; drug 10 μM, 72 hours, WST-1, OD450 nm, read-out: cell viability (survival rate), MCF7): 47%
- viability at 10 µM [14]: 33.1%
- viability at 10 µM (AsPC-1): 27.6%
- viability at 10 µM (NIH: OVCAR-3): 55.7%
- viability at 10 µM (TOV-21G): 17.4%
- viability at 10 µM [15]: 20.4%
- viability at 10 µM (U-2OS): 31.7%
- viability at 10 µM [16]: 16.8%
- viability at 10 µM [17]: 35.2%
- viability [18]: 18.8%

Source: US10105357B2, “Indication of antibiotic drugs for preparation of cancer inhibition pharmaceutical composition” (LAUNX BIOMEDICAL CO., LTD., priority 2014, dated 2018)
